# From US20250325505A1, “COMPOSITION COMPRISING CREATINE FOR USE IN THE TREATMENT OF BREATHING DIFFICULTIES” (Alzchem Trostberg GmbH, priority 2022, published 2025)
# Like-named read-outs stand apart in the source and are kept apart here.
# Legend:
# [1] = human, in vivo
# [2] = normal healthy population after creatine supplementation; cited from earlier work
# Post-COVID patients [3] = assay: Time to exhaustion, incremental treadmill test, creatine plus breathing exercise; type: in vivo, human; details: for Time to exhaustion: treadmill
# Procedure: (§1) The time to exhaustion of the patients was evaluated by an incremental test until exhaustion on a motorized treadmill. Speed and gradient of the treadmill are increased every third minute, starting at 2.7 km/h (1.7 miles per hour) at a 10% gradient and rising at stage 7 to 9.7 km/h (6 miles per hour) at 22% gradient (Will P. M. and Walter J. D., Am Heart. J., 1999 December, 138, 1033).
# [4] = both, human, in vivo, 3 months
# Post-COVID patients [5] = assay: Multidimensional fatigue inventory test (MFI-20), Example 1; type: in vivo, human; details: 4 g creatine monohydrate per day
# Procedure: (§2) The patient-reported outcomes for COVID-19-related signs and symptoms (e.g., breathing difficulties, lung pain, body aches,) were evaluated with VAS scale Table 3). Fatigue, comprising the conditions of the group general fatigue, physical fatigue, metal fatigue, reduced activity, and reduced motivation, was evaluated with a multidimensional fatigue inventory test (MFI-20 test, Smets E. M. et al., J. Psychosom. Res. 1995, 39(3), 315).
# Thus, the higher the score, the higher the respective symptom is experienced by the interviewed patient. As a consequence, the lower the value given, the better is the effect in mitigation of the respective symptom.
# Post-COVID patients [6] = assay: Time to exhaustion, incremental treadmill test, creatine vs placebo; type: in vivo, human; details: creatine vs placebo study; for Time to exhaustion: treadmill
# Procedure: as §1
# Post-COVID patients [7] = assay: Side effects, Example 2; type: in vivo, human; details: 4 g creatine monohydrate per day plus breathing exercise, 3-month
# Excerpt: The changes in study outcomes during the trial are depicted in Table 5 and 6.
# Post-COVID patients [8] = assay: Patient-reported COVID-19-related symptoms, VAS scale, Example 1; type: in vivo, human; details: for Body Aches (VAS scale) / Breathing difficulties (VAS scale) / Lung pain (VAS scale): 4 g creatine monohydrate per day
# Procedure: as §2
# Post-COVID patients [9] = assay: Patient-reported symptoms, VAS scale, Example 2; type: in vivo, human; details: for Breathing difficulties (VAS scale) / Lung malaise (VAS scale) / Lung pain (VAS scale): 4 g creatine monohydrate per day plus breathing exercise
# Procedure: as §2
# PCFS patients [10] = assay: Patient-reported symptoms, VAS scale, Example 4; type: in vivo, human; details: for Body Aches (VAS scale) / Breathing difficulties (VAS scale) / Lung pain (VAS scale): creatine 8 g per day or glucose 3 g per day
# Procedure: The patient-reported outcomes for COVID-19-related signs and symptoms (e.g., breathing difficulties, lung pain, body aches and post viral fatigue) were evaluated with VAS scale (Tables 10 and 11).
# The Cohen's effect sizes (d) in the creatine group for all outcomes evaluated and reproduced in Table 12 and FIG. 2. The effects are classified as small (d=0.2), medium (d=0.5, dashed line), and large (d≥0.8). Missing values are due to a statistical limitation in calculating effect sizes when pre and/or post values equal zero. Abbreviations: GF, general fatigue; PF, physical fatigue; RM, reduced motivation; RA, reduced activity; MF, mental fatigue; BOA, body aches; BRD, breathing difficulties; LUP, lung pain; and MAL, malaise.
# Post-COVID patients [11] = assay: Side effects, Example 1; type: in vivo, human; details: 4 g creatine monohydrate per day
# Procedure: The number of participants who were randomly assigned, received intended treatment, and were analyzed for the primary outcome at this time was twelve in total, six in experimental group and six in control group.
# PCFS patients [12] = assay: Fatigue scores, Example 4; type: in vivo, human; set-up: key to General fatigue score / Physical fatigue score / Mental fatigue score / Reduced activity score / Reduced motivation score: MFI-20 multidimensional fatigue inventory subscale scores; details: for General fatigue score / Mental fatigue score / Physical fatigue score / Reduced activity score / Reduced motivation score: creatine 8 g per day or glucose 3 g per day
# Procedure: as §2, with “315). […]” for “315).”
# Post-COVID patients [13] = assay: Multidimensional fatigue inventory test (MFI-20), Example 2; type: in vivo, human; details: 4 g creatine monohydrate per day plus breathing exercise
# Procedure: as §2
# [14] = creatine group, 8 g per day, 8 weeks
smiles,measurement,setting,value
"CN(CC(=O)O)C(=N)N.O [Creatine, creatine monohydrate]","Total creatine, Left paracentral grey matter",[1],6.7 ± 0.6 mM
same,"Total creatine, Right paracentral grey matter",[1],6.8 ± 0.4 mM
same,"Cohen's effect size (d), increased brain creatine level in left parietal white matter",[1]; 3 months,0.92
same,"Cohen's effect size (d), increased brain creatine level in parietal white matter",[1]; 3 months,1.99
same,"Cohen's effect size (d), increased brain creatine level in right frontal white matter",[1]; 3 months,1.25
same,"Cohen's effect size (d), increased brain creatine level in right paracentral grey matter",[1]; 3 months,0.88
same,"Cohen's effect size (d), increased brain creatine level in right parietal messial grey matter",[1]; 3 months,1.17
same,"Cohen's effect size (d), increased brain creatine level in thalamus",[1]; 3 months,0.82
same,"Total creatine, Left paracentral grey matter",[1]; 3 months,7.3 ± 0.9 mM
same,"Total creatine, Right paracentral grey matter",[1]; 3 months,7.2 ± 0.5 mM
same,"Cohen's effect size (d), increased brain creatine level in left parietal messial grey matter",[1]; 6 months,0.84
same,"Cohen's effect size (d), increased brain creatine level in left parietal white matter",[1]; 6 months,1.17
same,"Cohen's effect size (d), increased brain creatine level in parietal white matter",[1]; 6 months,1.74
same,"Cohen's effect size (d), increased brain creatine level in right frontal white matter",[1]; 6 months,1.32
same,"Cohen's effect size (d), increased brain creatine level in right parietal messial grey matter",[1]; 6 months,1.06
same,"Total creatine, Left paracentral grey matter",[1]; 6 months,7.1 ± 0.7 mM
same,"Total creatine, Right paracentral grey matter",[1]; 6 months,7.0 ± 0.7 mM
same,increase of creatine in the brain,[2],≤ 5%
same,Cohen's effect size for time to exhaustion,Post-COVID patients [3]; creatine monohydrate plus breathing exercise,0.36
same,stage reached in the treadmill test,Post-COVID patients [3]; creatine plus breathing exercise study,6
same,Time to exhaustion,"Post-COVID patients [3]; creatine plus breathing exercise study, 3-months",921 s
same,Time to exhaustion,"Post-COVID patients [3]; creatine plus breathing exercise study, Baseline",867 s
same,mean time to exhaustion improved,"Post-COVID patients [3]; experimental group, post-administration (3 months)",54 s
same,"Cohen's effect size (d) for creatine increment, vastus medialis muscle",[4],0.77
same,General fatigue score,Post-COVID patients [5]; 3 months,11.3
same,Mental fatigue score,Post-COVID patients [5]; 3 months,11.2
same,Physical fatigue score,Post-COVID patients [5]; 3 months,12.7
same,Reduced activity score,Post-COVID patients [5]; 3 months,12.0
same,Reduced motivation score,Post-COVID patients [5]; 3 months,13.0
same,General fatigue score,Post-COVID patients [5]; 6 months,12.7
same,Mental fatigue score,Post-COVID patients [5]; 6 months,10.5
same,Physical fatigue score,Post-COVID patients [5]; 6 months,13.2
same,Reduced activity score,Post-COVID patients [5]; 6 months,12.5
same,Reduced motivation score,Post-COVID patients [5]; 6 months,12.5
same,General fatigue score,Post-COVID patients [5]; Baseline,12.0
same,Mental fatigue score,Post-COVID patients [5]; Baseline,12.3
same,Physical fatigue score,Post-COVID patients [5]; Baseline,13.5
same,Reduced activity score,Post-COVID patients [5]; Baseline,11.5
same,Reduced motivation score,Post-COVID patients [5]; Baseline,13.0
same,stage achieved in the treadmill test,Post-COVID patients [6],6
same,time to exhaustion increased,Post-COVID patients [6]; matches 6-months vs baseline of Table 7,7.3%
same,Time to exhaustion,Post-COVID patients [6]; 3-months,922 s
same,Time to exhaustion,Post-COVID patients [6]; 6-months,959 s
same,Time to exhaustion,Post-COVID patients [6]; Baseline,894 s
same,side effects / tolerability,Post-COVID patients [7],well-tolerated
same,Body Aches (VAS scale),Post-COVID patients [8]; 3 months,1.2
same,Breathing difficulties (VAS scale),Post-COVID patients [8]; 3 months,0.5
same,Lung pain (VAS scale),Post-COVID patients [8]; 3 months,0.5
same,Body Aches (VAS scale),Post-COVID patients [8]; 6-months,0.0
same,Breathing difficulties (VAS scale),Post-COVID patients [8]; 6-months,0.0
same,Lung pain (VAS scale),Post-COVID patients [8]; 6-months,0.0
same,Body Aches (VAS scale),Post-COVID patients [8]; Baseline,4.5
same,Breathing difficulties (VAS scale),Post-COVID patients [8]; Baseline,2.3
same,Lung pain (VAS scale),Post-COVID patients [8]; Baseline,2.3
same,Body aches reduced,Post-COVID patients [8]; after 3 months,73.3%
same,Lung pain,Post-COVID patients [8]; after 3 months,reduced significantly
same,breathing difficulties (dyspnea) reduced,Post-COVID patients [8]; after 3 months,78%
same,"Cohen's effect size (d), body aches",Post-COVID patients [8]; at 3-month,1.77
same,"Cohen's effect size (d), breathing difficulties",Post-COVID patients [8]; at 3-month,0.89
same,"Cohen's effect size (d), body aches",Post-COVID patients [8]; at 6-month,3.03
same,"Cohen's effect size (d), breathing difficulties",Post-COVID patients [8]; at 6-month,1.25
same,"Cohen's effect size (d), lung pain",Post-COVID patients [8]; at 6-month,0.99
same,Cohen's effect size for lung malaise,Post-COVID patients [9]; 3-month follow up,2.97
same,Breathing difficulties (VAS scale),Post-COVID patients [9]; 3 months,0.0
same,Lung malaise (VAS scale),Post-COVID patients [9]; 3 months,1.0
same,Lung pain (VAS scale),Post-COVID patients [9]; 3 months,0.0
same,Breathing difficulties (VAS scale),Post-COVID patients [9]; Baseline,1.5
same,Lung malaise (VAS scale),Post-COVID patients [9]; Baseline,6.3
same,Lung pain (VAS scale),Post-COVID patients [9]; Baseline,0.5
same,lung malaise reduced,"Post-COVID patients [9]; creatine plus breathing exercise, 3-month follow up",84%
same,Cohen's effect size (d) for reducing body aches,PCFS patients [10]; 8-week follow-up,> 0.80
same,Cohen's effect size (d) for reducing breathing difficulties,PCFS patients [10]; 8-week follow-up,> 0.80
same,Cohen's effect size (d) for reducing lung malaise,PCFS patients [10]; 8-week follow-up,> 0.80
same,Body aches reduced,PCFS patients [10]; after 8 weeks,71%
same,Lung pain reduced,PCFS patients [10]; after 8 weeks,67%
same,breathing difficulties (dyspnea) reduced,PCFS patients [10]; after 8 weeks,85%
same,Body Aches (VAS scale),PCFS patients [10]; 8 weeks,0.8
same,Breathing difficulties (VAS scale),PCFS patients [10]; 8 weeks,0.4
same,Lung pain (VAS scale),PCFS patients [10]; 8 weeks,0.6
same,Body Aches (VAS scale),PCFS patients [10]; Baseline,2.8
same,Breathing difficulties (VAS scale),PCFS patients [10]; Baseline,2.6
same,Lung pain (VAS scale),PCFS patients [10]; Baseline,1.8
same,"Cohen's effect (d), Body aches (BOA)",PCFS patients [10]; [14],1.11
same,"Cohen's effect (d), Lung pain (LUP)",PCFS patients [10]; [14],0.64
same,side effects,Post-COVID patients [11],no major side effects
same,General fatigue score,PCFS patients [12]; 8 weeks,12.0
same,Mental fatigue score,PCFS patients [12]; 8 weeks,12.2
same,Physical fatigue score,PCFS patients [12]; 8 weeks,11.4
same,Reduced activity score,PCFS patients [12]; 8 weeks,12.0
same,Reduced motivation score,PCFS patients [12]; 8 weeks,10.3
same,General fatigue score,PCFS patients [12]; Baseline,12.6
same,Mental fatigue score,PCFS patients [12]; Baseline,13.4
same,Physical fatigue score,PCFS patients [12]; Baseline,12.2
same,Reduced activity score,PCFS patients [12]; Baseline,13.6
same,Reduced motivation score,PCFS patients [12]; Baseline,11.6
same,"Cohen's effect (d), General Fatigue",PCFS patients [12]; [14],0.44
same,"Cohen's effect (d), Physical Fatigue (PF)",PCFS patients [12]; [14],0.83
same,General fatigue score,Post-COVID patients [13]; 3 months,12.3
same,Mental fatigue score,Post-COVID patients [13]; 3 months,11.5
same,Physical fatigue score,Post-COVID patients [13]; 3 months,12.2
same,Reduced activity score,Post-COVID patients [13]; 3 months,12.8
same,Reduced motivation score,Post-COVID patients [13]; 3 months,12.8
same,General fatigue score,Post-COVID patients [13]; Baseline,11.5
same,Mental fatigue score,Post-COVID patients [13]; Baseline,11.8
same,Physical fatigue score,Post-COVID patients [13]; Baseline,12.3
same,Reduced activity score,Post-COVID patients [13]; Baseline,12.5
same,Reduced motivation score,Post-COVID patients [13]; Baseline,13.5
